According to PMC8876511, “Two out of Three Musketeers Fight against Cancer: Synthesis, Physicochemical, and Biological Properties of Phosphino Cu^I, Ru^II, Ir^III Complexes” (Pharmaceuticals, 2022):

Tests used:
MCF-7 cells = test: MTT cytotoxicity assay, MCF-7; assay type: cell-based, human
Method: (§1) Moreover, to investigate the activity of synthesized complexes as potential anticancer agents, their cytotoxicity toward a series of human cancer cell lines and a non-cancer cell line (HaCaT) was evaluated using the MTT assay. […] In addition, we also determined the cytotoxic activity of free ligands toward selected cancer cells. […] However, this effect depends on the cell line. […] The best values of cytotoxic activity of compounds have been obtained after 72 h of cell incubation. Additionally, synthesized complexes had high sensitivity to A549 cells, so this cell line was selected as the research subject for antitumor activity.
(§2) MCF7 cell line (human breast adenocarcinoma, morphology: epithelial-like, ATCC: HTB-22) and A549 cell line (human lung adenocarcinoma, morphology: epithelial, ATCC: CCL-185); HaCaT (human keratinocyte) were cultured in Dulbecco’s Modified Eagle’s Medium (DMEM, Corning, Poland) with phenol red, supplemented with 10% fetal bovine serum (FBS) and with 1% streptomycin/penicillin. Du-145 cell line (human prostate carcinoma); derived from metastatic site: brain was cultured in minimum essential medium (MEM, Corning) with only 10% fetal bovine serum (FBS). Cultures were incubated at 37 °C under a humidified atmosphere containing 5% CO2. Cells were passaged using a solution containing 0.05% trypsin and 0.5 mM EDTA. All media and other ingredients were purchased from ALAB, Poland.
(§3) Since most of the studied compounds are insoluble in aqueous media (Dulbecco’s Modified Eagle’s Medium or minimum essential medium (MEM, Corning), therefore, they needed to be pre-dissolved in DMSO for biological tests. DMSO concentration was kept below 1% in each tested concentration of each compound. […] In brief, 5×10^3 per well (0.2 mL) in the two first approaches, while 1×10^4 cells in the case of longer incubation time were seeded in 96-well flat-bottom microtiter plate, were incubated with the tested complexes at various ranges of concentrations. […] Various compound concentrations (dilutions in proper medium supplemented with 1% FBS) were tested in five replicates and repeated at least three times. Determined values of IC50 (concentration of a drug required to inhibit the growth of 50% of the cells) are given as mean + S.D. (Standard Deviation). IC50 values were determined, from the plots of cell viability in the presence of various concentrations of each compound by matching dose–response curves and using the Origin 9.0 software. Furthermore, post-treatment survival assessment of the treated cells was analyzed under an inverted fluorescence microscope (Olympus IC51, Japan) with an excitation filter 470/20 nm. For this, cells were stained with two versatile fluorescence dyes: fluorescein diacetate (FDA, 5 mg/mL) and propidium iodide (PI, 5 mg/mL) in standard conditions in the dark for 20 min. Before visualization, dyes were removed and cells were washed with PBS twice.

Du-145 cells = test: MTT cytotoxicity assay, Du-145; assay type: cell-based, human
Method: as §1, §2, §3

[1] = Partition coefficient, shake-flask method (n-octanol/PBS); assay type: physicochemical
Method: The partition coefficient was determined by the shake-flask method. A small amount of compound was dissolved in 5 mL PBS-saturated n-octanol. The sample was sonicated until all the compound was dissolved. Next, 5 mL of PBS saturated with n-octanol was added and the experiment proceeded as before. The resulting mixture was vortexed for 30 min in horizontal position. The sample was centrifuged for 2 min at 3700 rpm to obtain a phase separation. Next, 2 mL of each phase was taken. The next steps were a 5 min sonication and measurement of absorption spectra of the obtained solutions. The calibration curve was prepared in order to determine the concentration of the tested compounds in individual solutions. It was made using the absorption intensity of the compounds in series dilution solutions in PBS saturated with octanol or octanol saturated with PBS in the concentration range c = 1–100 nM.

Solubility (qualitative) = assay type: physicochemical
A549 cells [2] = test: MTT cytotoxicity assay, A549; assay type: cell-based, human
HaCaT cells [3] = test: MTT cytotoxicity assay, HaCaT (non-cancer); assay type: cell-based, human; details: 48 h
PANC-1 cells [4] = test: MTT cytotoxicity assay, PANC-1; assay type: cell-based, human
PANC-1 cells [5] = test: MTT cytotoxicity assay, PANC-1; assay type: cell-based, human; remark: listed apart in the source
Method: as §1
(§4) Since most of the studied compounds are insoluble in aqueous media (Dulbecco’s Modified Eagle’s Medium or minimum essential medium (MEM, Corning), therefore, they needed to be pre-dissolved in DMSO for biological tests. DMSO concentration was kept below 1% in each tested concentration of each compound. Cytotoxicity was assessed by MTT assay performed according to the protocols described previously in the following experimental approaches: 6 h + 24 h, 24 h + 24 h, and 72 h + 24 h. In brief, 5×10^3 per well (0.2 mL) in the two first approaches, while 1×10^4 cells in the case of longer incubation time were seeded in 96-well flat-bottom microtiter plate, were incubated with the tested complexes at various ranges of concentrations. After an appropriate incubation time of 6, 24, or 72 h, the cells were washed thee time with PBS and fresh medium was applied for a further 24 h in each approach. Various compound concentrations (dilutions in proper medium supplemented with 1% FBS) were tested in five replicates and repeated at least three times. Determined values of IC50 (concentration of a drug required to inhibit the growth of 50% of the cells) are given as mean + S.D. (Standard Deviation). IC50 values were determined, from the plots of cell viability in the presence of various concentrations of each compound by matching dose–response curves and using the Origin 9.0 software. Furthermore, post-treatment survival assessment of the treated cells was analyzed under an inverted fluorescence microscope (Olympus IC51, Japan) with an excitation filter 470/20 nm. For this, cells were stained with two versatile fluorescence dyes: fluorescein diacetate (FDA, 5 mg/mL) and propidium iodide (PI, 5 mg/mL) in standard conditions in the dark for 20 min. Before visualization, dyes were removed and cells were washed with PBS twice.

HaCaT cells [6] = test: MTT cytotoxicity assay, HaCaT (non-cancer); assay type: cell-based, human
Method: as §1, §2, §4

A549 cells [7] = test: MTT cytotoxicity assay, A549; assay type: cell-based, human; remark: listed apart in the source
Method: as §1, §2, §4

[8] = Stability towards atmospheric oxygen (UV-Vis); assay type: physicochemical
Method: Oxidation of copper(I) to copper(II) was observed within 12 h using UV-Vis spectroscopy (Figure 1) that was additionally conformed by color of the copper(I) inorganic compound solution changing from transparent to green. Additionally, oxidation of phosphines ligands (1, 2) was observed. It is worth mentioning that copper(I) ions can easily undergo oxidation processes. The instability of copper(I) complexes prevented us from evaluating their biological activity.

Compound | IC50 (MCF-7 cells; 24 h) | IC50 (MCF-7 cells; 48 h) | IC50 (MCF-7 cells; 72 h) | IC50 (Du-145 cells; 24 h) | IC50 (Du-145 cells; 48 h) | IC50 (Du-145 cells; 72 h) | solubility in mixture of H2O:DMSO (100:1) (Solubility (qualitative)) | IC50 (A549 cells [2]; 48 h) | IC50 (HaCaT cells [3]) | IC50 (PANC-1 cells [4]; 48 h) | IC50 (PANC-1 cells [5]; 24 h) | IC50 (PANC-1 cells [5]; 72 h) | IC50 (HaCaT cells [6]; 24 h) | IC50 (HaCaT cells [6]; 72 h) | IC50 (A549 cells [7]; 24 h) | IC50 (A549 cells [7]; 72 h) | IC50 (MCF-7 cells; Homo sapiens, MCF7, 48 h) | IC50 (MCF-7 cells; Homo sapiens, MCF7, 72 h) | IC50 (Du-145 cells; Homo sapiens, DU-145, 72 h) | IC50 (A549 cells [2]; Homo sapiens, A549, 48 h) | further results
Ru(η^6-p-cymene)Cl2Ph2PCH2N(CH2CH2CH2CH3)2 [2b] | 226 ± 20 µM | 226 ± 20 µM | 121 ± 20 µM | 102 ± 6 µM | 103 ± 7 µM | 17 ± 3 µM | well soluble | 387 ± 25 µM | 445 ± 25 µM | 258 ± 6 µM | 126 ± 6 µM | 112 ± 18 µM | 545 ± 13 µM | 347 ± 25 µM | 81 ± 4 µM | 14 ± 2 µM | – | – | – | – | Experimental LogP (logPo/w) [1]: 3.84
CCNCC [diethylamine] | – | 352 ± 25 µM | > 1000 µM | – | 126 ± 12 µM | > 1000 µM | – | 425 ± 38 µM | 545 ± 33 µM | 305 ± 13 µM | – | > 1000 µM | – | > 1000 µM | – | > 1000 µM | – | – | – | – | –
CCN(CC)CP(c1ccccc1)c1ccccc1 [compound 1, Ph2PCH2N(CH2CH3)2] | – | – | – | – | – | – | – | – | – | – | – | – | – | – | – | – | 149 ± 13 µM | 192 ± 20 µM | 86 ± 6 µM | 47 ± 5 µM | IC50 (MCF-7 cells; Homo sapiens, MCF7, 24 h): 458 ± 11 µM; IC50 (Du-145 cells; Homo sapiens, DU-145, 24 h): 203 ± 19 µM; solubility in H2O (Solubility (qualitative)): moderately; IC50 (HaCaT cells [3]; Homo sapiens, HaCaT): 458 ± 20 µM; sensitivity to oxidation in solution [8]: extremely sensitive to oxidation in solution; IC50 (PANC-1 cells [5]; Homo sapiens, PANC-1, 24 h): 426 ± 7 µM; IC50 (PANC-1 cells [5]; Homo sapiens, PANC-1, 72 h): 185 ± 12 µM; IC50 (HaCaT cells [6]; Homo sapiens, HaCaT, 24 h): 646 ± 20 µM; IC50 (HaCaT cells [6]; Homo sapiens, HaCaT, 72 h): 490 ± 12 µM; IC50 (A549 cells [7]; Homo sapiens, A549, 24 h): 620 ± 9 µM; IC50 (A549 cells [7]; Homo sapiens, A549, 72 h): 183 ± 12 µM
CC#N.CC#N.CCCCN(CCCC)CP(c1ccccc1)c1ccccc1.CCCCN(CCCC)CP(c1ccccc1)c1ccccc1.F[B-](F)(F)F.[Cu+] [2c, [Cu(NCCH3)2(Ph2PCH2N(CH2CH2CH2CH3)2)2]^+BF4^−] | – | – | – | – | – | – | well soluble | – | – | – | – | – | – | – | – | – | – | – | – | – | –
CCCCNCCCC [dibutylamine] | – | – | – | – | – | – | – | – | – | – | – | – | – | – | – | – | 226 ± 20 µM | > 1000 µM | > 1000 µM | 387 ± 25 µM | IC50 (Du-145 cells; Homo sapiens, DU-145, 48 h): 103 ± 7 µM; IC50 (HaCaT cells [3]; Homo sapiens, HaCaT): 445 ± 25 µM; IC50 (PANC-1 cells [4]; Homo sapiens, PANC-1, 48 h): 258 ± 6 µM; IC50 (PANC-1 cells [5]; Homo sapiens, PANC-1, 72 h): > 1000 µM; IC50 (HaCaT cells [6]; Homo sapiens, HaCaT, 72 h): > 1000 µM; IC50 (A549 cells [7]; Homo sapiens, A549, 72 h): > 1000 µM
CC#N.CC#N.CCN(CC)CP(c1ccccc1)c1ccccc1.CCN(CC)CP(c1ccccc1)c1ccccc1.F[B-](F)(F)F.[Cu+] [1c, [Cu(NCCH3)2(Ph2PCH2N(CH2CH3)2)2]^+BF4^−] | – | – | – | – | – | – | well soluble | – | – | – | – | – | – | – | – | – | – | – | – | – | –
CCCCN(CCCC)C[P+](c1ccccc1)(c1ccccc1)[Ir-3]([Cl])([Cl])[C]1(C)C(C)=C(C)C(C)=C1C [2a, Ir(η^5-Cp*)Cl2Ph2PCH2N(CH2CH2CH2CH3)2] | 125 ± 15 µM | 189 ± 20 µM | 56 ± 6 µM | 69 ± 6 µM | 69 ± 8 µM | 13 ± 2 µM | – | 61 ± 3 µM | 420 ± 12 µM | 198 ± 20 µM | 106 ± 5 µM | 85 ± 16 µM | 559 ± 25 µM | 302 ± 22 µM | 79 ± 6 µM | 16 ± 3 µM | – | – | – | – | Experimental LogP (logPo/w) [1]: 4.0
CCCCN(CCCC)CP(c1ccccc1)c1ccccc1 [compound 2, Ph2PCH2N(CH2CH2CH2CH3)2] | – | – | – | – | – | – | – | – | – | – | – | – | – | – | – | – | 125 ± 20 µM | 285 ± 11 µM | 57 ± 4 µM | 72 ± 6 µM | IC50 (MCF-7 cells; Homo sapiens, MCF7, 24 h): 355 ± 13 µM; IC50 (Du-145 cells; Homo sapiens, DU-145, 24 h): 185 ± 12 µM; IC50 (Du-145 cells; Homo sapiens, DU-145, 48 h): 54 ± 8 µM; solubility in H2O (Solubility (qualitative)): moderately; IC50 (HaCaT cells [3]; Homo sapiens, HaCaT): 420 ± 11 µM; sensitivity to oxidation in solution [8]: extremely sensitive to oxidation in solution; IC50 (PANC-1 cells [4]; Homo sapiens, PANC-1, 48 h): 158 ± 23 µM; IC50 (PANC-1 cells [5]; Homo sapiens, PANC-1, 24 h): 386 ± 6 µM; IC50 (PANC-1 cells [5]; Homo sapiens, PANC-1, 72 h): 142 ± 20 µM; IC50 (HaCaT cells [6]; Homo sapiens, HaCaT, 24 h): 556 ± 13 µM; IC50 (HaCaT cells [6]; Homo sapiens, HaCaT, 72 h): 448 ± 25 µM; IC50 (A549 cells [7]; Homo sapiens, A549, 24 h): 569 ± 11 µM; IC50 (A549 cells [7]; Homo sapiens, A549, 72 h): 158 ± 11 µM
N.N.[Cl][Pt][Cl] [Cisplatin, reference compound] | 176 ± 5 µM | 151 ± 6 µM | 64 ± 4 µM | 85 ± 7 µM | 81 ± 8 µM | 50 ± 2 µM | – | 66 ± 9 µM | 362 ± 4 µM | 131 ± 7 µM | 166 ± 20 µM | 79 ± 5 µM | 400 ± 3 µM | 102 ± 2 µM | 70 ± 8 µM | 11 ± 3 µM | – | – | – | – | –
